25 compounds from PubChem BioAssay (NCI) can be followed below.

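Tested at 5 concentrations; 48 h exposure; 96-well plates; endpoints linearly interpolated, else capped at highest concentration. GI50: concentration for 50% inhibition of growth. TGI: total growth inhibition.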

What all share (test): DTP human tumour cell line panel, 48 h
Test [1] has as its system CAKI-1 renal.
Test [2] has as its system UACC-62 melanoma.
In test [3] the test system is HT29 colon.
Test [4] concerns ACHN renal.
Test [5] concerns OVCAR-4 ovarian.
The test system of test [6] is SF-268 CNS.
Test [7] concerns DU-145 prostate.

For `C=C(C)[C@@H]1CCC2=C[C@H](OC2=O)[C@@]2(C)C[C@@H]2C2=CC(C)=C(O2)[C@H]1O`, the TGI in test [1], in test [2], in test [3], in test [4], in test [5] and in test [6] was above 75 µM in each case. In test [7], this compound gave a TGI above 75 µM.
In the case of `CC(=O)Nc1c(C)cc2c(nc3n2CCC3O)c1[N+](=O)[O-]` (stereo unspecified), the TGI in test [1], in test [2], in test [3], in test [4], in test [5] and in test [6] was above 100 µM each time. This compound gave a total growth inhibition concentration (TGI) in test [7] above 100 µM.
As to `COc1ccc2nc(-c3ccc(O)cc3)sc2c1`, the TGI stood at 57.5 µM in test [1]; 42.9 µM in test [2]; 37.2 µM in test [3]; 32.5 µM in test [4]; 44.5 µM in test [5]; 49.5 µM in test [6]. In addition, in test [7], the TGI was above 100 µM.
For the compound `O=C1C(c2c(O)[nH]c3ccc(Br)cc23)=Nc2ccccc21`, the TGI in test [1] is 38.8 µM; in test [2], 28 µM; in test [3], 15 µM; in test [4] it was 12.2 µM; in test [5], 29.8 µM; in test [6], 24.4 µM. For the same compound, the TGI in test [7] came out at 27.2 µM.
Turning to `Cc1ccccc1S(=O)(=O)Nn1cnc2ccc(S(=O)(=O)Nc3ccc(Cl)cc3)cc2c1=O`, the concentration for total growth inhibition (TGI) in test [1], in test [2], in test [3], in test [4], in test [5] and in test [6] was above 100 µM throughout. In test [7], this compound returned a TGI above 100 µM.
With `OCCNCNc1nc(NCNCCO)nc(N(CNCCO)CNCCO)n1`, the TGI in test [1] is 57.7 µM; in test [2], 35.6 µM; in test [3], 45.8 µM; in test [4], above 68.9 µM; in test [5], above 65.4 µM; in test [6] it was 60.8 µM. In test [7], this compound came in with a TGI of 44.3 µM.
`O=C1CSC(c2cccc([N+](=O)[O-])c2)N1c1ccc(-n2c(-c3ccccc3)nc3ccccc3c2=O)cc1` (stereo unspecified): the TGI in test [1], in test [2], in test [3], in test [4], in test [5] and in test [6] was above 100 µM throughout. The total growth inhibition concentration (TGI) in test [7] was above 100 µM.
In the case of `CC(C)(C)OC(=O)N1C(c2cccnc2)=CC[C@H]2C3CC=C(c4cccnc4)[C@@]3(C)CC[C@@H]21` (stereo partly specified), the TGI in test [1] came to 30.2 µM; in test [2] it was 8.31 µM; in test [3] it was 11.8 µM; in test [4], 11.3 µM; in test [5] it was 19.3 µM; in test [6], 11.5 µM. This compound displayed a concentration for total growth inhibition (TGI) in test [7] of 19.2 µM.
Regarding `CC(=O)OCc1ccc2oc(=O)c(C(=O)Oc3ccccc3)cc2c1`, the TGI in test [1] was 38.5 µM; in test [2], 38.6 µM; in test [3] it was above 100 µM; in test [4], above 100 µM; in test [5], above 100 µM; in test [6], above 100 µM. This compound gave a TGI in test [7] above 100 µM.
As to `Cc1cc(S(=O)(=O)Nc2nc3ccccc3c(=O)n2N)c(S)cc1Cl`, the TGI was above 100 µM in test [1]; 49.2 µM in test [2]; above 100 µM in test [3]; above 100 µM in test [4]; above 100 µM in test [5]; 40.1 µM in test [6]. This compound also came in with a concentration for total growth inhibition (TGI) in test [7] above 100 µM. The GI50 in test [6] was 7.23 µM.
On to `C=C(Br)CNC(=O)CCC(=O)NCC(=C)Br`, for which the total growth inhibition concentration (TGI) in test [1], in test [2], in test [3], in test [4], in test [5] and in test [6] was above 100 µM throughout. The compound also gave a TGI in test [7] above 100 µM.
For the compound `Cn1c(-c2cccc([N+](=O)[O-])c2)[n+](C)c2ccccc21`, the total growth inhibition concentration (TGI) in test [1], in test [2], in test [3], in test [4], in test [5] and in test [6] was above 100 µM in each case. Further, in test [7], the TGI was above 100 µM.
For `C/C(=N\NC(=S)NCCCNC(=S)N/N=C(\C)c1ccccn1)c1ccccn1`, the concentration for total growth inhibition (TGI) in test [1] is above 49.9 µM; in test [2], 14.2 µM; in test [3] it was above 100 µM; in test [4] it was 16.6 µM; in test [5], above 54 µM; in test [6] it was 21 µM. The same compound came in with a concentration for total growth inhibition (TGI) in test [7] of 33.9 µM.
For the compound `Cc1ccc2c(c1)-c1nc(N)c(C#N)c(-c3ccccc3)c1CCS2(=O)=O`, the TGI in test [1] was above 100 µM; in test [2] it was above 100 µM; in test [3] it was above 100 µM; in test [4] it was above 100 µM; in test [5], 41.8 µM; in test [6], above 100 µM. For the same compound, in test [7], the total growth inhibition concentration (TGI) was above 100 µM.
`NC(N)=Nc1ccc(CC(N)C(=O)O)cc1` (stereo unspecified): the concentration for total growth inhibition (TGI) in test [1], in test [2], in test [3], in test [4], in test [5] and in test [6] was above 12.5 µM each time. The same compound displayed a total growth inhibition concentration (TGI) in test [7] above 12.5 µM.
For the compound `CC(C)/C(Cl)=N\OC(=O)Nc1cccc(Cl)c1`, the total growth inhibition concentration (TGI) in test [1] is 34.8 µM; in test [2], 46.3 µM; in test [3], 35.1 µM; in test [4] it was 18.4 µM; in test [5], 27 µM; in test [6], 47.2 µM. Also, in test [7], the TGI was found to be 51.2 µM.
For `O=C1Oc2cc(O)cc(/C=C/c3ccc(O)cc3)c2[C@@]12c1c(O)cc(O)cc1OC2c1cccc(O)c1` (stereo partly specified), the concentration for total growth inhibition (TGI) was above 100 µM in test [1]; 68 µM in test [2]; 65 µM in test [3]; above 100 µM in test [4]; above 100 µM in test [5]; above 100 µM in test [6]. The compound further registered a TGI in test [7] above 100 µM.
In the case of `N#Cc1cnc(N)nc1NCC1(CO)CC(CCc2ccccc2)C1` (stereo unspecified), the concentration for total growth inhibition (TGI) in test [1], in test [2], in test [3], in test [4], in test [5] and in test [6] was above 100 µM each time. Further, the TGI in test [7] is above 100 µM.
For the compound `O=[N+]([O-])c1cc(-c2nc(-c3ccccc3)c(-c3ccccc3)[nH]2)c(O)c([N+](=O)[O-])c1`, the concentration for total growth inhibition (TGI) in test [1] was 77.6 µM; in test [2] it was 33.8 µM; in test [3], 35.8 µM; in test [4], 46.7 µM; in test [5], above 100 µM; in test [6] it was above 100 µM. The same compound returned a concentration for total growth inhibition (TGI) in test [7] of 55.4 µM.
Consider `COc1ccc2c(c1)CCc1c-2n(CCN2CCCCC2)c2ccc(OC)cc12`, for which the concentration for total growth inhibition (TGI) in test [1], in test [2], in test [3], in test [4], in test [5] and in test [6] was above 100 µM in each case. Also, the total growth inhibition concentration (TGI) in test [7] is above 100 µM.
Take `O=c1/c(=C/c2ccc(-c3ccc(Cl)cc3Cl)o2)sc2n1[C@@H](c1ccc(Cl)cc1)C=C(c1cc(F)c(Cl)cc1Cl)N=2`: the total growth inhibition concentration (TGI) in test [1], in test [2], in test [3], in test [4], in test [5] and in test [6] was above 100 µM each time. Besides, the TGI in test [7] was above 100 µM.
Consider `Cc1ccc(S(=O)(=O)NNCNC(=O)c2ccccc2)cc1`, for which the total growth inhibition concentration (TGI) in test [1], in test [2], in test [3], in test [4], in test [5] and in test [6] was above 100 µM each time. Moreover, the total growth inhibition concentration (TGI) in test [7] was above 100 µM.
For `CCOC(=O)C(SCCO)C(C(=O)OCC)n1ccc(=O)[nH]c1=O` (stereo unspecified), the TGI in test [1] is 39.5 µM; in test [2], 67.3 µM; in test [3] it was 83.3 µM; in test [4] it was above 66.6 µM; in test [5], above 86.5 µM; in test [6], above 100 µM. Also, in test [7], the concentration for total growth inhibition (TGI) is above 100 µM.
Take `N#Cc1ccc(-n2c3ccccc3c3ccc4c(c32)C(=O)C=CC4=O)cc1`: the TGI turned out to be 2.72 µM in test [1]; 15.6 µM in test [2]; 5.88 µM in test [3]; 3.01 µM in test [4]; 13 µM in test [5]; 9.12 µM in test [6]. The compound further returned a TGI in test [7] above 24.7 µM.
With `O=C1CC(c2ccccc2)n2cccc21` (stereo unspecified), the total growth inhibition concentration (TGI) in test [1], in test [2], in test [3], in test [4], in test [5] and in test [6] was above 100 µM throughout. This compound also had a total growth inhibition concentration (TGI) in test [7] above 100 µM.
